Patent publication US7838659B2, “Herpesvirus ribozymes and vectors” (priority 2003, dated 2010)

Experiments:
Assay type in all cases: cell-based
[1] = tested on: HSV-1 17syn+ (drug sensitive); test: Multi-step replication, comparison with acyclovir, strain 17syn+; settings: MOI 10^−3, 48 hours, rabbit skin cells
Protocol: (§1) Four groups were included when testing the impact of the ribozyme on replication of drug resistant HSV-1 strains: mock infection and Ad-UL20 Rz treatments were performed as before; an adenovirus expressing GFP was used instead of ψ5; and an acyclovir (ACV) treatment (0.1 μM) was included. The dosage of acyclovir was determined by the threshold dose needed to distinguish drug resistance of HSV-1 (Thi, T. N., C. Deback, I. Malet, P. Bonnafous, Z. Ait-Arkoub, and H. Agut. 2006. Rapid determination of antiviral drug susceptibility of herpes simplex virus types 1 and 2 by real-time PCR. Antiviral Res 69:152-7). Forty-eight hours were allowed for HSV-1 infection to develop before cell lysates were harvested for titration. Five HSV-1 strains were tested: 17syn+ and KOS are drug sensitive strains, and PAAr5, tkLTRZ1, and ACG^r4 are drug resistant isolates.
(§2) UL20-Rz154 inhibits viral replication of HSV-1 drug resistant strains. Ad-UL20 Rz154 was compared with acyclovir treatment in a multi-step infection at an MOI of 10^−3. […] In the case of PAAr5 infection, UL20 ribozyme reduced viral production by 99%; against tkLTRZ1 infection, it reduced virus yield by 76%; and against ACGr4 by 70%. Therefore, knocking down the expression of the UL20 gene led to a significant inhibition of HSV-1 viral replication in viral strains that were resistant to a conventional antiviral drug.

[2] = tested on: HSV-1 KOS (drug sensitive); test: Multi-step replication, comparison with acyclovir, strain KOS; settings: MOI 10^−3, 48 hours, rabbit skin cells
Protocol: as §1, §2

[3] = tested on: HSV-1 PAAr5 (drug resistant); test: Multi-step replication, comparison with acyclovir, strain PAAr5; settings: strain PAAr5, MOI 10^−3, 48 hours, rabbit skin cells
Protocol: as §1, §2

[4] = tested on: HSV-1 tkLTRZ1 (drug resistant); test: Multi-step replication, comparison with acyclovir, strain tkLTRZ1; settings: strain tkLTRZ1, MOI 10^−3, 48 hours, rabbit skin cells
Protocol: as §1, §2

[5] = tested on: HSV-1 ACGr4 (drug resistant); test: Multi-step replication, comparison with acyclovir, strain ACGr4; settings: strain ACGr4, MOI 10^−3, 48 hours, rabbit skin cells
Protocol: as §1, §2

## Nc1nc2c(ncn2COCCO)c(=O)[nH]1 [acyclovir]
[1]
  inhibition of HSV-1 viral production: 99%
[2]
  inhibition of HSV-1 viral production: 80%
[3]
  reduction of viral production: no significant difference in HSV yields
[4]
  reduction of virus yield: no significant difference in HSV yields
[5]
  reduction of virus yield: no significant difference in HSV yields
